From US20230053540A1, “TREATMENT OF LIVER INJURY” (Massachusetts Institute of Technology, priority 2019, published 2023)

Test system: hepatocytes
Experiment: Seq-Well scRNA-Seq of hepatocytes after APAP overdose (signature scores, DEG vs untreated)
Type: in vivo, mouse

Compound: CC(=O)Nc1ccc(O)cc1 [APAP, acetaminophen]
- Rpl34 logFC (APAP vs UT, A24logFC): −0.2976
- Rps24 logFC (APAP vs UT, A24logFC): −0.2625
- Rraga logFC (APAP vs UT, A24logFC): 0.2626
- Rsl1d1 logFC (APAP vs UT, A24logFC): 0.3461
- Selo logFC (APAP vs UT, A24logFC): −0.2574
- Sema4g logFC (APAP vs UT, A24logFC): −0.2505
- Serbp1 logFC (APAP vs UT, A24logFC): 0.3227
- Sf3b1 logFC (APAP vs UT, A24logFC): 0.2888
- Sigmar1 logFC (APAP vs UT, A24logFC): −0.3055
- Slc16a2 logFC (APAP vs UT, A24logFC): −0.252
- Slc16a10 logFC (APAP vs UT, A24logFC): −0.2548
- Slc25a51 logFC (APAP vs UT, A24logFC): 0.264
- Slc26a1 logFC (APAP vs UT, A24logFC): −0.2817
- Slc30a1 logFC (APAP vs UT, A24logFC): 0.2506
- Slc35d1 logFC (APAP vs UT, A24logFC): 0.3094
- Smoc1 logFC (APAP vs UT, A24logFC): 0.2616
- Spag9 logFC (APAP vs UT, A24logFC): 0.3188
- Spcs1 logFC (APAP vs UT, A24logFC): −0.2629
- Sptan1 logFC (APAP vs UT, A24logFC): 0.3127
- Srd5a1 logFC (APAP vs UT, A24logFC): −0.2773
- Srrm2 logFC (APAP vs UT, A24logFC): 0.3282
- St3gal4 logFC (APAP vs UT, A24logFC): 0.275
- Swi5 logFC (APAP vs UT, A24logFC): −0.2621
- Tab2 logFC (APAP vs UT, A24logFC): 0.3484
- Tbca logFC (APAP vs UT, A24logFC): −0.2726
- Tln1 logFC (APAP vs UT, A24logFC): 0.321
- Tmem86b logFC (APAP vs UT, A24logFC): −0.2582
- Tmem150a logFC (APAP vs UT, A24logFC): −0.2535
- Tmem242 logFC (APAP vs UT, A24logFC): −0.2725
- Tpi1 logFC (APAP vs UT, A24logFC): −0.2616
- Trip11 logFC (APAP vs UT, A24logFC): 0.3479
- Ubr5 logFC (APAP vs UT, A24logFC): 0.3057
- Ugt3a2 logFC (APAP vs UT, A24logFC): −0.2586
- Usp7 logFC (APAP vs UT, A24logFC): 0.2873
- Usp34 logFC (APAP vs UT, A24logFC): 0.2859
- Xrn2 logFC (APAP vs UT, A24logFC): 0.2985
- Ythdc1 logFC (APAP vs UT, A24logFC): 0.2641
- Zfand5 logFC (APAP vs UT, A24logFC): 0.2882
- Zfp106 logFC (APAP vs UT, A24logFC): 0.3369
- Zfp259 logFC (APAP vs UT, A24logFC): 0.2556
- 2810007J24Rik avg_logFC (APAP vs. UT): −0.2871
- 2810007J24Rik pct.1 (APAP vs. UT): 0.909
- Aadac avg_logFC (APAP vs. UT): −0.3243
- Aadac pct.1 (APAP vs. UT): 0.849
- Abca6 avg_logFC (APAP vs. UT): 0.2637
- Abca6 pct.1 (APAP vs. UT): 0.679
- Abcb4 avg_logFC (APAP vs. UT): 0.2759
- Abcb4 pct.1 (APAP vs. UT): 0.78
- Acaa1b avg_logFC (APAP vs. UT): −0.3158
- Acaa1b pct.1 (APAP vs. UT): 0.883
- Adh1 avg_logFC (APAP vs. UT): −0.3122
- Adh1 pct.1 (APAP vs. UT): 0.941
- Agpat6 avg_logFC (APAP vs. UT): 0.2706
- Agpat6 pct.1 (APAP vs. UT): 0.695
- Agt avg_logFC (APAP vs. UT): 0.3007
- Agt pct.1 (APAP vs. UT): 0.859
- Akr1c6 avg_logFC (APAP vs. UT): −0.5047
- Akr1c6 pct.1 (APAP vs. UT): 0.92
- Aldh9a1 avg_logFC (APAP vs. UT): 0.2715
- Aldh9a1 pct.1 (APAP vs. UT): 0.836
- Aldob avg_logFC (APAP vs. UT): 0.2576
- Aldob pct.1 (APAP vs. UT): 0.997
- Angptl3 avg_logFC (APAP vs. UT): 0.414
- Angptl3 pct.1 (APAP vs. UT): 0.961
- Apoa4 avg_logFC (APAP vs. UT): 0.5984
- Apoa4 pct.1 (APAP vs. UT): 0.574
- Apob avg_logFC (APAP vs. UT): 0.2678
- Apob pct.1 (APAP vs. UT): 0.989
- Apoc2 avg_logFC (APAP vs. UT): 0.5107
- Apoc2 pct.1 (APAP vs. UT): 0.851
- Arhgap5 avg_logFC (APAP vs. UT): 0.2875
- Arhgap5 pct.1 (APAP vs. UT): 0.647
- Arhgef12 avg_logFC (APAP vs. UT): 0.2783
- Arhgef12 pct.1 (APAP vs. UT): 0.597
- Asl avg_logFC (APAP vs. UT): 0.3374
- Asl pct.1 (APAP vs. UT): 0.859
- Atp1a1 avg_logFC (APAP vs. UT): 0.2871
- Atp1a1 pct.1 (APAP vs. UT): 0.623
- Atp2a2 avg_logFC (APAP vs. UT): 0.3031
- Atp2a2 pct.1 (APAP vs. UT): 0.666
- Bach1 avg_logFC (APAP vs. UT): 0.2613
- Bach1 pct.1 (APAP vs. UT): 0.356
- Bche avg_logFC (APAP vs. UT): 0.2566
- Bche pct.1 (APAP vs. UT): 0.562
- Brd2 avg_logFC (APAP vs. UT): 0.2856
- Brd2 pct.1 (APAP vs. UT): 0.59
- Btg2 avg_logFC (APAP vs. UT): 0.2635
- Btg2 pct.1 (APAP vs. UT): 0.401
- C8g avg_logFC (APAP vs. UT): −0.2582
- C8g pct.1 (APAP vs. UT): 0.859
- Car3 avg_logFC (APAP vs. UT): −0.3762
- Car3 pct.1 (APAP vs. UT): 0.956
- Cdo1 avg_logFC (APAP vs. UT): 0.2665
- Cdo1 pct.1 (APAP vs. UT): 0.964
- Ces3a avg_logFC (APAP vs. UT): −0.3174
- Ces3a pct.1 (APAP vs. UT): 0.93
- Ces3b avg_logFC (APAP vs. UT): −0.284
- Ces3b pct.1 (APAP vs. UT): 0.727
- Chchd2 avg_logFC (APAP vs. UT): −0.2575
- Chchd2 pct.1 (APAP vs. UT): 0.874
- Chchd10 avg_logFC (APAP vs. UT): 0.3833
- Chchd10 pct.1 (APAP vs. UT): 0.925
- Chka avg_logFC (APAP vs. UT): 0.2892
- Chka pct.1 (APAP vs. UT): 0.312
- Cite avg_logFC (APAP vs. UT): 0.3077
- Cite pct.1 (APAP vs. UT): 0.602
- Cml1 avg_logFC (APAP vs. UT): −0.2953
- Cml1 pct.1 (APAP vs. UT): 0.709
- Cox4i1 avg_logFC (APAP vs. UT): −0.2627
- Cox4i1 pct.1 (APAP vs. UT): 0.941
- Cox6c avg_logFC (APAP vs. UT): −0.3432
- Cox6c pct.1 (APAP vs. UT): 0.808
- Cox7a2 avg_logFC (APAP vs. UT): −0.2511
- Cox7a2 pct.1 (APAP vs. UT): 0.722
- Cp avg_logFC (APAP vs. UT): 0.3758
- Cp pct.1 (APAP vs. UT): 0.965
- Cpt1a avg_logFC (APAP vs. UT): 0.285
- Cpt1a pct.1 (APAP vs. UT): 0.775
- Creld2 avg_logFC (APAP vs. UT): 0.2626
- Creld2 pct.1 (APAP vs. UT): 0.487
- Csde1 avg_logFC (APAP vs. UT): 0.2739
- Csde1 pct.1 (APAP vs. UT): 0.749
- Cyb5 avg_logFC (APAP vs. UT): −0.2845
- Cyb5 pct.1 (APAP vs. UT): 0.972
- Cyp4a10 avg_logFC (APAP vs. UT): 0.7159
- Cyp4a10 pct.1 (APAP vs. UT): 0.727
- Cyp4a14 avg_logFC (APAP vs. UT): 1.281
- Cyp4a14 pct.1 (APAP vs. UT): 0.714
- D17Wsu92e avg_logFC (APAP vs. UT): 0.2809
- D17Wsu92e pct.1 (APAP vs. UT): 0.736
- Ddx3x avg_logFC (APAP vs. UT): 0.2753
- Ddx3x pct.1 (APAP vs. UT): 0.689
- Ddx21 avg_logFC (APAP vs. UT): 0.2576
- Dennd5b avg_logFC (APAP vs. UT): 0.2562
- Dennd5b pct.1 (APAP vs. UT): 0.55
- Dhcr24 avg_logFC (APAP vs. UT): 0.3629
- Dhcr24 pct.1 (APAP vs. UT): 0.883
- Eif1a avg_logFC (APAP vs. UT): 0.2667
- Eif1a pct.1 (APAP vs. UT): 0.492
- Eif4g2 avg_logFC (APAP vs. UT): 0.3407
- Eif4g2 pct.1 (APAP vs. UT): 0.824
- Ell2 avg_logFC (APAP vs. UT): 0.2572
- Ell2 pct.1 (APAP vs. UT): 0.609
- Elovl3 avg_logFC (APAP vs. UT): −0.5221
- Elovl3 pct.1 (APAP vs. UT): 0.65
- Epb4.1 avg_logFC (APAP vs. UT): 0.2567
- Epb4.1 pct.1 (APAP vs. UT): 0.527
- Etf1 pct.1 (APAP vs. UT): 0.61
- Etnppl avg_logFC (APAP vs. UT): 0.2637
- Etnppl pct.1 (APAP vs. UT): 0.647
- Fabp1 avg_logFC (APAP vs. UT): −0.3078
- Fabp1 pct.1 (APAP vs. UT): 0.992
- Fam134b avg_logFC (APAP vs. UT): 0.2987
- Fam134b pct.1 (APAP vs. UT): 0.589
- Fga avg_logFC (APAP vs. UT): 0.4335
- Fga pct.1 (APAP vs. UT): 0.996
- Fgb avg_logFC (APAP vs. UT): 0.3905
- Fgb pct.1 (APAP vs. UT): 0.999
- Fgg avg_logFC (APAP vs. UT): 0.3391
- Fgg pct.1 (APAP vs. UT): 0.997
- Fgl1 avg_logFC (APAP vs. UT): 0.3611
- Fgl1 pct.1 (APAP vs. UT): 0.861
- Fos avg_logFC (APAP vs. UT): 0.2633
- Fos pct.1 (APAP vs. UT): 0.609
- Gadd45g avg_logFC (APAP vs. UT): −0.3405
- Gadd45g pct.1 (APAP vs. UT): 0.503
- Gclc avg_logFC (APAP vs. UT): 0.671
- Gclc pct.1 (APAP vs. UT): 0.839
- Gfra1 avg_logFC (APAP vs. UT): 0.2536
- Gfra1 pct.1 (APAP vs. UT): 0.676
- Gjb2 avg_logFC (APAP vs. UT): 0.2803
- Gjb2 pct.1 (APAP vs. UT): 0.725
- Gm2a avg_logFC (APAP vs. UT): 0.2814
- Gm2a pct.1 (APAP vs. UT): 0.599
- Gm13775 avg_logFC (APAP vs. UT): −1.061
- Gm13775 pct.1 (APAP vs. UT): 0.306
- Gm15564 avg_logFC (APAP vs. UT): 1.171
- Gm15564 pct.1 (APAP vs. UT): 0.981
- Gm23935 avg_logFC (APAP vs. UT): 0.5701
- Gm23935 pct.1 (APAP vs. UT): 0.954
- Gm24601 avg_logFC (APAP vs. UT): 0.4962
- Gm24601 pct.1 (APAP vs. UT): 0.198
- Gm26917 avg_logFC (APAP vs. UT): 0.395
- Gm26917 pct.1 (APAP vs. UT): 0.253
- Gm26924 avg_logFC (APAP vs. UT): 0.8508
- Gm26924 pct.1 (APAP vs. UT): 1
- Grip2 avg_logFC (APAP vs. UT): 0.3797
- Grip2 pct.1 (APAP vs. UT): 0.158
- Grn avg_logFC (APAP vs. UT): 0.3692
- Grn pct.1 (APAP vs. UT): 0.62
- Gstm3 avg_logFC (APAP vs. UT): −0.4736
- Gstm3 pct.1 (APAP vs. UT): 0.269
- Gyk avg_logFC (APAP vs. UT): 0.3144
- Gyk pct.1 (APAP vs. UT): 0.583
- Hbb-bs avg_logFC (APAP vs. UT): 1.332
- Hbb-bs pct.1 (APAP vs. UT): 0.125
- Hbb-bt avg_logFC (APAP vs. UT): 0.4482
- Hbb-bt pct.1 (APAP vs. UT): 0.052
- Hdlbp avg_logFC (APAP vs. UT): 0.274
- Hdlbp pct.1 (APAP vs. UT): 0.828
- Herpud1 avg_logFC (APAP vs. UT): 0.2973
- Herpud1 pct.1 (APAP vs. UT): 0.842
